Values quoted from earlier work in patent US20230330068A1, “GEL COMPOSITION OF LULICONAZOLE FOR TREATMENT OF VAGINAL FUNGAL INFECTIONS AND ITS MANUFACTURING PROCESS” (priority 2023, published 2023).

Tested on: Candida
Conditions: anticandidal activity; recent findings from the literature

## N#C/C(=C1/SC[C@@H](c2ccc(Cl)cc2Cl)S1)n1ccnc1 [Luliconazole]
  minimum inhibitory concentration (MIC) range: 31 to 130 µg/mL
